29 molecules from patent US10030006B2, “Coumarin based Hsp90 inhibitors with urea and ether substituents” (University of Kansas, priority 2013, dated 2018) can be followed below.

Common to all, as to type: cell-based
Assay [1] has as its system MRC5. The experiment in a line: Anti-proliferation assay, MRC5 (normal). As for the experimental part: (§1) Cells were maintained in a 1:1 mixture of Advanced DMEM/F12 (Gibco) supplemented with non-essential amino acids, L-glutamine (2 mM), streptomycin (500 μg/mL), penicillin (100 units/mL), and 10% FBS. Cells were grown to confluence in a humidified atmosphere (37° C., 5% CO2), seeded (2000/well, 100 μL) in 96-well plates, and allowed to attach overnight. Compound at varying concentrations in DMSO (1% DMSO final concentration) was added, and cells were returned to the incubator for 72 h. At 72 h, the number of viable cells was determined using an MTS/PMS cell proliferation kit (Promega) per the manufacturer's instructions. Cells incubated in 1% DMSO were used at 100% proliferation, and values were adjusted accordingly. IC50 values were calculated from separate experiments performed in triplicate using GraphPad Prism.

Assay [2] deals with HMLE. The experiment in a line: Anti-proliferation assay, HMLE (normal). The protocol: as §1
In assay [3] the test system is SKBr3 (estrogen receptor negative, Her2 over-expressing breast cancer cells). The experiment in a line: Anti-proliferation assay (MTS/PMS, 72 h), SKBr3. The protocol: as §1
(§2) The anti-proliferative activity of these compounds is evaluated against two breast cancer cell lines, SKBr3 (estrogen receptor negative, Her2 over-expressing breast cancer cells) and MCF-7 (estrogen receptor positive breast cancer cells).

For assay [4], the system named is MCF-7 (estrogen receptor positive breast cancer cells). The experiment in a line: Anti-proliferation assay (MTS/PMS, 72 h), MCF-7. The protocol: as §1, §2
Assay [5] deals with DRO81-1. As to the kind of experiment: Anti-proliferation assay, DRO81-1. Particulars: Table 6, substituted phenyl ureas; Thyroid. The protocol: as §1
In assay [6] the test system is JMAR. As to the kind of experiment: Anti-proliferation assay, JMAR. Particulars: JMAR; Table 6, substituted phenyl ureas; HSNCC. The protocol:
as §1

The test system of assay [7] is MDA1986. As to the kind of experiment: Anti-proliferation assay, MDA1986. The following applies: MDA1986; Table 6, substituted phenyl ureas; HSNCC. The protocol:
as §1

The test system of assay [8] is MDAMB231. The experiment in a line: Anti-proliferation assay, MDAMB231. Particulars: Homo sapiens, MDA-MB-231; Table 6, substituted phenyl ureas; Tri-Neg. As for the experimental part: as §1
The test system of assay [9] is A-549. The experiment in a line: Anti-proliferation assay, A-549. Particulars: Homo sapiens, A549; Table 6, substituted phenyl ureas. As for the experimental part:
as §1

Assay [10] has as its system PC-3. The experiment in a line: Anti-proliferation assay, PC-3. Particulars: Homo sapiens, PC-3; Table 6, substituted phenyl ureas; Prostate Cancer. The protocol: as §1
The mark [11] stands for this setting: Homo sapiens, SK-BR-3, Table 4, alkylamino analogues, read-out: SKBr3.
[12] abbreviates: Homo sapiens, MCF7, Table 4, alkylamino analogues, read-out: MCF-7.
Where [13] appears, read: Homo sapiens, SK-BR-3, Table 8, biphenyl ureas, Breast Cancer, read-out: IC50 SKBr3.
Setting [14] is: Homo sapiens, MCF7, Table 8, biphenyl ureas, Breast Cancer, read-out: IC50 MCF-3.
The mark [15] stands for this setting: Table 9, non-aryl ureas, Breast Cancer, read-out: IC50 SKBr3.
The mark [16] stands for this setting: Table 9, non-aryl ureas, Breast Cancer, read-out: IC50 MCF-3.
Setting [17] is: Table 3, cycloamine analogues, read-out: SKBr3.
Setting [18] is: Table 3, cycloamine analogues, read-out: MCF-7.
Where [19] appears, read: Homo sapiens, SK-BR-3, Table 6, substituted phenyl ureas, Breast Cancer, read-out: IC50 SKBr3.
Setting [20] is: Homo sapiens, MCF7, Table 6, substituted phenyl ureas, Breast Cancer, read-out: IC50 MCF-3.

SMILES strings stand for the structures. Where two headings read alike, the source gives them in different places.

As to `Cc1c(OC2CCN(C)CC2)ccc2cc(NC(=O)N(C)Cc3ccccc3)c(=O)oc12` [drawing 173], the IC50 in [1] (Table 9, non-aryl ureas) is over 25000 nM; in [2] (Table 9, non-aryl ureas), over 25000 nM.

On to `Cc1c(OC2CCN(C)CC2)ccc2cc(NC(=O)NC34CC5CC(CC(C5)C3)C4)c(=O)oc12` [drawing 169], for which the IC50 is 3800 nM in assay [1] (Table 9, non-aryl ureas) and over 25000 nM in assay [2] (Table 9, non-aryl ureas).

On to `Cc1c(OC2CCN(C)CC2)ccc2cc(NC(=O)NC3CCCC3)c(=O)oc12` [drawing 167], for which the IC50 in assay [1] (Table 9, non-aryl ureas) is over 25000 nM; in [2] (Table 9, non-aryl ureas), over 25000 nM.

As to `Cc1c(OC2CCN(C)CC2)ccc2cc(NC(=O)NC(c3ccccc3)c3ccccc3)c(=O)oc12` [drawing 175], the IC50 in assay [1] (Table 9, non-aryl ureas) amounted to 15500 nM; in assay [2] (Table 9, non-aryl ureas), 1600 nM.

Take `Cc1c(OC2CCN(C)CC2)ccc2cc(NC(=O)NC3CCCCC3)c(=O)oc12` [drawing 168]: the IC50 in [1] (Table 9, non-aryl ureas) was over 25000 nM; in assay [2] (Table 9, non-aryl ureas), over 25000 nM.

In the case of `CCNCCCOc1ccc2cc(NC(=O)c3ccc(O)c(CC=C(C)C)c3)c(=O)oc2c1C` [Compound 68a, N-(7-(3-(ethylamino)propoxy)-8-methyl-2-oxo-2H-chromen-3-yl)-4-hydroxy-3-(3-methylbut-2-en-1-yl)benzamide], the IC50 in assay [3] (setting [11]) is 0.72 ± 0.34 µM; in assay [4] (setting [12]), 0.98 ± 0.35 µM.

On to `Cc1c(OC2CCN(C)CC2)ccc2cc(NC(=O)N(Cc3ccccc3)Cc3ccccc3)c(=O)oc12` [drawing 174], for which the IC50 in [1] (Table 9, non-aryl ureas) was 20900 nM; in assay [2] (Table 9, non-aryl ureas) it was 7100 nM.

As to `CC(C)=CCc1cc(C(=O)Nc2cc3ccc(OCCCN(C(C)C)C(C)C)c(C)c3oc2=O)ccc1O` [Compound 68i, N-(7-(3-(diisopropylamino)propoxy)-8-methyl-2-oxo-2H-chromen-3-yl)-4-hydroxy-3-(3-methylbut-2-en-1-yl)benzamide], the results for the IC50 in assay [3] (setting [11]) and in assay [4] (setting [12]) were 1.6 ± 0.02 µM and 1.31 ± 0.39 µM, respectively.

On to `Cc1c(OC2CCN(C)CC2)ccc2cc(NC(=O)Nc3cccc(-c4ccccc4)c3)c(=O)oc12` [H, H, 1-([1,1′-biphenyl]-3-yl)-3-(8-methyl-7-((1-methylpiperidin-4-yl)oxy)-2-oxo-2H-chromen-3-yl)urea], for which the IC50 is 0.38 µM in [3] (setting [13]) and 0.32 µM in assay [4] (setting [14]).

`COc1ccc(CNC(=O)Nc2cc3ccc(OC4CCN(C)CC4)c(C)c3oc2=O)cc1`: the IC50 in [3] (setting [15]) was found to be 0.68 ± 0.06 µM; in assay [4] (setting [16]), 0.65 ± 0.11 µM.

Turning to `Cc1ccc(CNC(=O)Nc2cc3ccc(OC4CCN(C)CC4)c(C)c3oc2=O)cc1`, the figures for the IC50 in assay [3] (setting [15]) and in [4] (setting [16]) were 0.56 ± 0.07 µM and 0.55 ± 0.02 µM, respectively.

On to `CC(C)=CCc1cc(C(=O)Nc2cc3ccc(OCC4CCN(C)C4)c(C)c3oc2=O)ccc1O` (stereo not drawn), for which the values for the IC50 in [3] (setting [17]) and in assay [4] (setting [18]) were 0.92 ± 0.56 µM and 1.55 ± 0.04 µM, respectively.

As for `Cc1c(OC2CCN(C)CC2)ccc2cc(NC(=O)N3CCN(C)CC3)c(=O)oc12` [drawing 171], the IC50 in assay [1] (Table 9, non-aryl ureas) was over 25000 nM; in assay [2] (Table 9, non-aryl ureas), over 25000 nM.

As for `CC(C)=CCc1cc(C(=O)Nc2cc3ccc(OC4CCN(C)CC4)c(C)c3oc2=O)ccc1OCCCN(C)C` [Compound 24, 4-(3-(dimethylamino)propoxy)-N-(8-methyl-7-(1-methylpiperidin-4-yloxy)-2-oxo-2H-chromen-3-yl)-3-(3-methylbut-2-enyl)benzamide], the IC50 in assay [3] (Homo sapiens, SK-BR-3, Table 2, modified benzamide and biphenylamide derivatives (in μM), read-out: SKBr3) stood at 0.25 ± 0.02 µM; in [4] (Homo sapiens, MCF7, Table 2, modified benzamide and biphenylamide derivatives (in μM), read-out: MCF-7) it was 0.46 ± 0.05 µM.

Consider `CC(C)=CCc1cc(C(=O)Nc2cc3ccc(OCCCNC(C)(C)C)c(C)c3oc2=O)ccc1O` [Compound 68j, N-(7-(3-(tert-butylamino)propoxy)-8-methyl-2-oxo-2H-chromen-3-yl)-4-hydroxy-3-(3-methylbut-2-en-1-yl)benzamide], for which the IC50 was found to be 0.66 ± 0.06 µM in [3] (setting [11]) and 0.95 ± 0.1 µM in [4] (setting [12]).

Take `Cc1c(OC2CCN(C)CC2)ccc2cc(NC(=O)NC(C)(C)C)c(=O)oc12` [drawing 170]: the IC50 in [1] (Table 9, non-aryl ureas) was 21100 nM; in assay [2] (Table 9, non-aryl ureas), over 25000 nM.

In the case of `COc1ccc(NC(=O)Nc2cc3ccc(OC4CCN(C)CC4)c(C)c3oc2=O)cc1-c1ccccc1` [OMe, H, 1-(6-methoxy-[1,1′-biphenyl]-3-yl)-3-(8-methyl-7-((1-methylpiperidin-4-yl)oxy)-2-oxo-2H-chromen-3-yl)urea], the IC50 in assay [3] (setting [13]) came to 0.45 µM; in assay [4] (setting [14]) it was 0.93 µM.

Take `CCCCOc1ccc(C(=O)Nc2cc3ccc(OC4CCN(C)CC4)c(C)c3oc2=O)cc1CC=C(C)C` [Compound 17, 4-butoxy-N-(8-methyl-7-(1-methylpiperidin-4-yloxy)-2-oxo-2H-chromen-3-yl)-3-(3-methylbut-2-enyl)benzamide]: the IC50 turned out to be 1.4 ± 0.07 µM in [3] (Homo sapiens, SK-BR-3, Table 1, modified benzamide coumarin derivatives, read-out: SKBr3) and 1.44 ± 0.05 µM in assay [4] (Homo sapiens, MCF7, Table 1, modified benzamide coumarin derivatives, read-out: MCF-7).

`Cc1c(OC2CCN(C)CC2)ccc2cc(NC(=O)Nc3cccc(C(F)(F)F)c3)c(=O)oc12` [m-CF3, 1-(8-methyl-7-((1-methylpiperidin-4-yl)oxy)-2-oxo-2H-chromen-3-yl)-3-(3-(trifluoromethyl)phenyl)urea]: the IC50 in assay [5] turned out to be 7300 nM; in assay [6], 1700 nM; in assay [7], 150 nM; in [1] (Homo sapiens, MRC5, Table 6, substituted phenyl ureas), 1600 nM; in assay [8], 550 nM; in assay [9], 46 nM. The IC50 in [2] (HMLE, Table 6, substituted phenyl ureas) turned out to be 16800 nM; in assay [3] (setting [19]), 0.26 µM; in assay [10], 43 nM; in assay [4] (setting [20]), 0.28 µM.

Turning to `CCCNCCCOc1ccc2cc(NC(=O)c3ccc(O)c(CC=C(C)C)c3)c(=O)oc2c1C` [Compound 68d, 4-hydroxy-N-(8-methyl-2-oxo-7-(3-(propylamino)propoxy)-2H-chromen-3-yl)-3-(3-methylbut-2-en-1-yl)benzamide], the results for the IC50 in assay [3] (setting [11]) and in assay [4] (setting [12]) were 0.99 ± 0.03 µM and 0.98 µM, respectively.

Consider `CC(C)=CCc1cc(C(=O)Nc2cc3ccc(OCCCN4CCN(C)CC4)c(C)c3oc2=O)ccc1O` [drawing 143], for which the IC50 in assay [3] (setting [17]) turned out to be 1.01 ± 0.03 µM; in assay [4] (setting [18]) it was 1.2 ± 0.12 µM.

Consider `Cc1c(OC2CCN(C)CC2)ccc2cc(NC(=O)Nc3ccc(O)cc3)c(=O)oc12` [p-OH, 1-(4-hydroxyphenyl)-3-(8-methyl-7-((1-methylpiperidin-4-yl)oxy)-2-oxo-2H-chromen-3-yl)urea], for which the figures for the IC50 in assay [3] (setting [19]) and in assay [4] (setting [20]) were 1.38 µM and 1.34 µM, respectively.

For the molecule `CC(C)=CCc1cc(C(=O)Nc2cc3ccc(OCC4CCCNC4)c(C)c3oc2=O)ccc1O` (stereo not drawn), the IC50 came out at 0.6 ± 0.01 µM in assay [3] (setting [17]) and 0.79 ± 0.1 µM in assay [4] (setting [18]).

As for `COc1cccc(NC(=O)Nc2cc3ccc(OC4CCN(C)CC4)c(C)c3oc2=O)c1` [m-OCH3], the IC50 in assay [3] (Table 6, substituted phenyl ureas, Breast Cancer, read-out: IC50 SKBr3) came out at 1.15 µM; in [4] (Table 6, substituted phenyl ureas, Breast Cancer, read-out: IC50 MCF-3), 0.96 µM.

As to `CC(C)=CCc1cc(C(=O)Nc2cc3ccc(OCCCNC(C)C)c(C)c3oc2=O)ccc1O` [Compound 68g, 4-hydroxy-N-(7-(3-(isopropylamino)propoxy)-8-methyl-2-oxo-2H-chromen-3-yl)-3-(3-methylbut-2-en-1-yl)benzamide], the IC50 in assay [3] (setting [11]) turned out to be 0.75 ± 0.26 µM; in assay [4] (setting [12]), 0.74 ± 0.16 µM.

On to `CC(C)=CCc1cc(C(=O)Nc2cc3ccc(OCC4CCCN(C)C4)c(C)c3oc2=O)ccc1O` (stereo not drawn), for which the IC50 in assay [3] (setting [17]) was determined as 1.3 ± 0.63 µM; in [4] (setting [18]), 2.64 ± 0.45 µM.

For `CC(C)=CCc1cc(C(=O)Nc2cc3ccc(OCCCN4CCCC4)c(C)c3oc2=O)ccc1O` [drawing 147], the IC50 came out at 0.72 ± 0.01 µM in assay [3] (setting [17]) and 0.99 ± 0.04 µM in assay [4] (setting [18]).

In the case of `Cc1c(OC2CCN(C)CC2)ccc2cc(NC(=O)NCc3ccccc3)c(=O)oc12` [drawing 172], the IC50 in [1] (Table 9, non-aryl ureas) was 20900 nM; in assay [2] (Table 9, non-aryl ureas), over 25000 nM.

As to `CC(C)=CCc1cc(C(=O)Nc2cc3ccc(OCCCNCC(C)C)c(C)c3oc2=O)ccc1O` [Compound 68f, 4-hydroxy-N-(7-(3-(isobutylamino)propoxy)-8-methyl-2-oxo-2H-chromen-3-yl)-3-(3-methylbut-2-en-1-yl)benzamide], the IC50 stood at 1.03 ± 0.02 µM in [3] (setting [11]) and 1.32 ± 0.06 µM in assay [4] (setting [12]).
